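Cultured in 96-well plates, cells were exposed to test compound for 48 hours across five concentrations. GI50 is the concentration that inhibits growth by half. TGI: total growth inhibition.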
How the values were obtained:
Experiment in all cases: NCI anticancer screen, dose series, 48 h
A549 NSCLC = tested on: A549 NSCLC
CCRF-CEM leukemia = tested on: CCRF-CEM leukemia
IGROV1 ovarian = tested on: IGROV1 ovarian
LOX IMVI melanoma = tested on: LOX IMVI melanoma
NCI-H23 lung = tested on: NCI-H23 lung
SF-539 CNS = tested on: SF-539 CNS
SW-620 colon = tested on: SW-620 colon
UACC-257 melanoma = tested on: UACC-257 melanoma
DU-145 prostate = tested on: DU-145 prostate
MDA-MB-231 breast = tested on: MDA-MB-231 breast

Row | SMILES | TGI (A549 NSCLC) [µM] | TGI (CCRF-CEM leukemia) [µM] | TGI (IGROV1 ovarian) [µM] | TGI (LOX IMVI melanoma) [µM] | TGI (NCI-H23 lung) [µM] | TGI (SF-539 CNS) [µM] | TGI (SW-620 colon) [µM] | TGI (UACC-257 melanoma) [µM] | GI50 (A549 NSCLC) [µM] | GI50 (CCRF-CEM leukemia) [µM] | GI50 (IGROV1 ovarian) [µM] | GI50 (LOX IMVI melanoma) [µM] | GI50 (NCI-H23 lung) [µM] | GI50 (SF-539 CNS) [µM] | GI50 (SW-620 colon) [µM] | GI50 (UACC-257 melanoma) [µM] | GI50 (DU-145 prostate) [µM] | TGI (DU-145 prostate) [µM] | GI50 (MDA-MB-231 breast) [µM] | TGI (MDA-MB-231 breast) [µM]
1 | CCOC(=O)C1=C(NNC(=O)Cc2ccccc2)CSC1=Nc1ccccc1 | > 100 | > 100 | > 100 | > 100 | > 100 | > 100 | > 100 | > 100 | – | – | – | – | – | – | – | – | – | – | – | –
2 | O=c1c2cc(Br)ccc2nc(-c2ccccc2Cl)n1NCC1(O)OCC(O)C(O)C1O (stereo not given) | > 100 | > 100 | – | > 100 | > 100 | – | > 100 | > 100 | – | – | – | – | – | – | – | – | – | – | – | –
3 | N#C/C(=C1\NN=C(N)C(c2ccc(Cl)cc2)=C1O)c1ccc(Cl)cc1 | > 100 | > 100 | > 100 | > 100 | > 100 | > 100 | > 100 | > 100 | – | – | – | – | – | – | – | – | – | – | – | –
4 | O=C(O)CCSCCCN1C(=O)c2ccccc2C1=O | > 100 | – | > 100 | – | > 100 | > 100 | > 100 | > 100 | – | – | – | – | – | – | – | – | – | – | – | –
5 | [C-]#[O+].[C-]#[O+].[C-]#[O+].[C-]#[O+].[Ir].[Ir].[O-]c1ccc2ccccc2c1C=Nc1ccc(N=Cc2c([O-])ccc3ccccc23)cc1 | > 100 | > 100 | > 100 | > 100 | > 100 | > 100 | > 100 | > 100 | > 100 | 66 | > 100 | > 100 | > 100 | > 100 | > 100 | > 100 | – | – | – | –
6 | CC(CN1CCN(C)CC1)CN1c2ccccc2Sc2ccc(C(F)(F)F)cc21 (stereo not given) | 3.49 | 6.74 | 10.2 | 3.25 | 4.05 | 3.59 | 3.67 | 3.81 | 1.85 | 2.6 | 2.77 | 1.68 | 1.83 | 1.67 | 1.83 | 1.89 | 2.8 | 6.99 | 1.36 | 2.82
7 | COc1ccc(C2=NN(C(=O)COc3ccc(Cl)cc3)C(O)(c3ccc(Cl)cc3)C2)cc1 (stereo not given) | > 100 | – | > 100 | > 100 | > 100 | > 100 | > 100 | > 100 | – | – | – | – | – | – | – | – | – | – | – | –
8 | CS(=O)(=O)OCCn1cnc2nc(NC(=O)c3ccccc3)[nH]c(=O)c21 | > 100 | > 100 | > 100 | > 100 | – | > 100 | > 100 | > 100 | – | – | – | – | – | – | – | – | – | – | – | –
9 | CC(=O)Nc1ccc(/C=N\N2C(=O)c3ccccc3C2=O)cc1 | > 100 | > 100 | > 100 | > 100 | > 100 | > 100 | > 100 | > 100 | – | – | – | – | – | – | – | – | – | – | – | –
10 | COc1ccc(-c2cc(-c3ccccc3)nc(N3CCN(CCNc4ccnc5cc(Cl)ccc45)CC3)n2)cc1 | 4.39 | > 100 | 3.19 | 3.24 | 5.23 | 3.06 | 3.47 | – | 1.9 | 2.19 | 1.48 | 1.76 | 1.9 | 1.53 | 1.73 | – | 1.88 | 3.94 | 1.81 | 3.43
11 | CC1CC2C(=O)N(c3ccccc3)C(=O)C2c2c1c1ccccc1n2Cc1ccccc1 (stereo not given) | > 100 | > 100 | > 100 | > 100 | – | > 100 | > 100 | – | – | – | – | – | – | – | – | – | – | – | – | –
12 | CC(C)(O)C1CCC(Nc2ccc3ncc(-c4cccc(C(F)(F)F)c4)n3n2)CC1 (stereo not given) | 13.2 | 7.89 | 11.6 | 4.23 | 30.2 | 11.2 | 15 | – | 3.1 | 0.946 | 2.48 | 1.56 | 3.16 | 1.77 | 2.91 | – | 3.52 | 14.8 | 1.96 | 14
13 | O=C(/C=C/c1ccc(Cl)c(Cl)c1)c1ccc(F)cc1 | > 100 | 20.5 | 40.2 | – | 83.2 | 38.2 | 4.08 | 58 | – | – | – | – | – | – | – | – | – | – | – | –
14 | C[C@]12CC[C@@H]3c4ccc(O)cc4CC[C@H]3[C@@H]1CC[C@@H]2NS(=O)(=O)c1cccc(C(F)(F)F)c1 | 12.8 | 24.1 | 18 | – | 15.8 | 16.2 | 15.6 | 15.7 | 3.23 | 3.46 | 5.19 | – | 3.76 | 4.21 | 3.72 | 3.54 | 5.83 | 18.4 | 2.39 | 6.77
15 | CC1CC(c2cccc3c2OCO3)=Nc2ccccc2S1 (stereo not given) | > 100 | > 100 | > 100 | > 100 | > 100 | > 100 | > 100 | > 100 | – | – | – | – | – | – | – | – | – | – | – | –
16 | CCCCCCC#Cc1ccccc1C#CCO | 49 | – | 43.3 | 49.3 | 9.74 | 35.6 | 38 | 62.7 | 20.7 | – | 18 | 20.3 | 3.69 | 19 | 20.1 | 26.5 | 17.7 | 36.3 | > 100 | > 100
17 | CC1=C(C(=O)Nc2cccc(Cl)c2)C(c2ccc([N+](=O)[O-])cc2)C(C(=O)Nc2cccc(Cl)c2)=C(C)N1 | > 100 | > 100 | > 100 | 28.8 | 62.3 | > 100 | – | 38.2 | – | – | – | – | – | – | – | – | – | – | – | –
18 | CC(/C(=N/NC(=O)C(N)=O)c1c(Cl)ccc(Cl)c1O)C1(O)C(=O)Nc2ccccc21 (stereo not given) | > 100 | 75.8 | > 100 | > 100 | > 100 | > 100 | > 100 | > 100 | – | – | – | – | – | – | – | – | – | – | – | –
19 | Cn1ccc2c(c1=O)C(=O)c1nccc3c1c-2nc1ccccc13 | 2.9 | > 100 | 3.87 | 2.81 | 2.8 | 3.42 | 3.17 | – | 1.47 | 2.21 | 1.52 | 1.4 | 1.27 | 1.83 | 1.28 | – | – | – | 1.64 | 3.13

Source: PubChem BioAssay (NCI)
